Reference: publication PMC12154443, “Design, Synthesis, Anti-Tumor Activity and Molecular Docking Studies of Novel Triphenylphosphine-Containing Formononetin Derivatives” (International Journal of Molecular Sciences, 2025)
Read-outs that look alike come from different tables or passages of the source.

Legend:
[1] = tested on: human embryonic kidney cells (HEK-293); test: MTT cell viability assay, normal HEK-293 cells; type: cell-based; conditions: HEK293, 48 h, read-out: half inhibitory concentration (IC50), HEK-293
Method: (§1) The human embryonic kidney cells (HEK-293), human non-small-cell lung cancer (A549), human breast cancer cells (MCF-7), and human prostate cancer (PC-3M) cells used in this study were obtained from the Beijing BNCC Biotechnology Research Institute (Beijing, China), and human gastric cancer cells (HGC-27) were obtained from Dalian Meilun Biotechnology Co., Ltd. (Dalian, China).
(§2) The cell lines used in this study (A549, MCF-7, PC-3M, HGC-27, HEK-293) were removed from the CO2 incubator and seeded into 96-well plates at a density of 5 × 10^4/mL. Following a 24-h incubation period under standard CO2 conditions, we added […] of sample solutions at various concentrations ([…], 12.5, 25, 50, 100 μmol/L) to each well. Each concentration was tested in six replicates. The control group received 0.1% DMSO in serum-free medium (SFM). After 48 h of the drug effect, 10 µL of MTT solution was added to each well under light-avoidance conditions, and incubation was continued under light-avoidance conditions for 4 h; the supernatant was discarded, and 150 μL of DMSO was added to dissolve the resulting formazan crystals. After 10 min of shaking to ensure the complete dissolution and uniform color development of purple crystals, the absorbance (OD) was measured at 490 nm using a microplate reader.
(§3) The inhibition rate was calculated as: Inhibition rate (%) = [(OD value of control group-OD value of administered group)/(OD value of control group-OD value of zeroing group)] × 100%, where OD value of zeroing group represents the zeroing group.
(§4) The IC50 values of the drugs were calculated by fitting using GraphPad Prism v.6.01 (GraphPad Software, San Diego, CA, USA), and it was used as a criterion for selecting the appropriate drug concentration for subsequent experiments.

[2] = tested on: human gastric cancer cells (HGC-27); test: MTT cell viability assay, HGC-27; type: cell-based; conditions: 48 h, HGC-27 cells, read-out: half inhibitory concentration (IC50), HGC-27
Method: as §1, §2, §3, §4

[3] = tested on: human non-small-cell lung cancer (A549); test: MTT cell viability assay, A549; type: cell-based; conditions: A549 cells; for IC50: Homo sapiens, MTT, 48 h, read-out: half inhibitory concentration (IC50), A549; for increase in cytostatic effect relative to formononetin: from IC50 values
Method: The human embryonic kidney cells (HEK-293), human non-small-cell lung cancer (A549), human breast cancer cells (MCF-7), and human prostate cancer (PC-3M) cells used in this study were obtained from the Beijing BNCC Biotechnology Research Institute (Beijing, China), and human gastric cancer cells (HGC-27) were obtained from Dalian Meilun Biotechnology Co., Ltd. (Dalian, China). […] Each concentration was tested in six replicates. The control group received 0.1% DMSO in serum-free medium (SFM). […] The inhibition rate was calculated as: Inhibition rate (%) = [(OD value of control group-OD value of administered group)/(OD value of control group-OD value of zeroing group)] × 100%, where OD value of zeroing group represents the zeroing group.

[4] = tested on: human prostate cancer (PC-3M) cells; test: MTT cell viability assay, PC-3M; type: cell-based; conditions: 48 h, read-out: half inhibitory concentration (IC50), PC-3M
Method: as §1, §2, §3, §4

[5] = tested on: human breast cancer cells (MCF-7); test: MTT cell viability assay, MCF-7; type: cell-based
Method: as §1, §2, §3, §4

[6] = Solubility observed during the experimental process; type: physicochemical; conditions: room temperature, formononetin in water, methanol, ethanol, acetone, tetrahydrofuran, ethyl acetate, dichloromethane, chloroform, derivatives in acetate
Method: Therefore, using procedures reported in the previous studies, we employed a molar ratio of 1:3 between the intermediate and triphenylphosphine. […] For the synthesis of fatty acid esters, dichloromethane was employed as the reaction solvent, and a 1.5-fold molar excess of the corresponding acid was added. The reaction was conducted over a 1–4 h period, which enabled the complete conversion of formononetin and maximum yield. […] The introduction of triphenylphosphine […].

[7] = MCF7, 48 h, MCF-7 cells, read-out: half inhibitory concentration (IC50), MCF-7
[8] = MCF7, MCF-7 cells, read-out: IC50 against MCF-7 cells

Row | SMILES | IC50 [2] [µM] | IC50 [3] [µM] | IC50 [4] [µM] | IC50 [5, 7] [µM] | IC50 [5, 8] [µM] | solubility (observation) [6] | IC50 [1] [µM] | increase in cytostatic effect relative to formononetin [3] [fold]
1 | COc1ccc(-c2coc3cc(OC(=O)CCCCCBr)ccc3c2=O)cc1 [1a, 7-O-(6-bromohexanoyl)-formononetin] | 83.3 ± 8.32 |  |  |  |  |  | 83.4 ± 8.61 | 
2 | COc1ccc(-c2coc3cc(OC(=O)CCCCCCBr)ccc3c2=O)cc1 [1b, 7-O-(7-bromoheptanoyl)-formononetin] | 79.1 ± 5.65 |  |  |  |  |  | 70.7 ± 5.61 | 
3 | COc1ccc(-c2coc3cc(OC(=O)CCCCCCCBr)ccc3c2=O)cc1 [1c, 7-O-(8-bromooctanoyl)-formononetin] | 31.4 ± 4.93 | > 100 |  |  |  |  | 68 ± 5.33 | 
4 | COc1ccc(-c2coc3cc(OC(=O)CCCCCCCCBr)ccc3c2=O)cc1 [1d, 7-O-(9-bromononanoi)-formononetin] | 79.2 ± 9.27 | 86.2 ± 6.1 |  |  |  |  | 74.4 ± 4.28 | 
5 | COc1ccc(-c2coc3cc(OC(=O)CCCCCCCCCBr)ccc3c2=O)cc1 [1e, 7-O-(10-bromodecanoyl)-formononetin] | 66.1 ± 7.33 | 65.4 ± 5.01 | 84 ± 11 |  |  |  | 95.1 ± 7.97 | 
6 | COc1ccc(-c2coc3cc(OC(=O)CCCCCCCCCCBr)ccc3c2=O)cc1 [1f, 7-O-(11-bromoundecanoyl)-formononetin] | 55.6 ± 2.43 | 74.6 ± 11.4 |  |  |  |  | 95.7 ± 8.09 | 
7 | COc1ccc(-c2coc3cc(OC(=O)CCCCCCCCCCCBr)ccc3c2=O)cc1 [1g, 7-O-(12-bromododecanoyl)-formononetin] | 95.5 ± 6.23 | 53.6 ± 5.15 | > 100 |  |  |  | 59.9 ± 7.79 | 
8 | COc1ccc(-c2coc3cc(OC(=O)CCCCC[P+](c4ccccc4)(c4ccccc4)c4ccccc4)ccc3c2=O)cc1 [2a, 7-O-(6-bromohexanoyl)-formononetin-triphenylphosphine coupling] | 13.4 ± 2.77 | 28.8 ± 2.45 | 55.2 ± 4.4 | 72.8 ± 6.25 |  |  | 44.8 ± 2.39 | 
9 | COc1ccc(-c2coc3cc(OC(=O)CCCCCC[P+](c4ccccc4)(c4ccccc4)c4ccccc4)ccc3c2=O)cc1 [2b, 7-O-(7-bromoheptanoyl)-formononetin-triphenylphosphine coupling] | 32.1 ± 5.96 | 42.2 ± 3.69 | 69.2 ± 3.98 | 46.5 ± 4.94 |  |  | 46.2 ± 3.99 | 
10 | COc1ccc(-c2coc3cc(OC(=O)CCCCCCC[P+](c4ccccc4)(c4ccccc4)c4ccccc4)ccc3c2=O)cc1 [2c, 7-O-(8-bromooctanoyl)-formononetin-triphenylphosphine coupling] | 18.6 ± 1.6 | 12.2 ± 1.52 | 21.7 ± 1.25 | 42.6 ± 9.44 |  |  | 77 ± 8.26 | ~7
11 | COc1ccc(-c2coc3cc(OC(=O)CCCCCCCC[P+](c4ccccc4)(c4ccccc4)c4ccccc4)ccc3c2=O)cc1 [2d, 7-O-(9-bromononanoyl)-formononetin-triphenylphosphine coupling] | 29.1 ± 2.58 | 31.2 ± 4.4 | 67 ± 6.97 | 56.8 ± 4.04 |  |  | 47 ± 8.41 | 
12 | COc1ccc(-c2coc3cc(OC(=O)CCCCCCCCC[P+](c4ccccc4)(c4ccccc4)c4ccccc4)ccc3c2=O)cc1 [2e, 7-O-(10-bromodecanoyl)-formononetin-triphenylphosphine coupling] | 39.2 ± 2.68 | 39 ± 1.65 | 97.9 ± 6.33 | 85.5 ± 4.99 |  |  | 64 ± 3.47 | 
13 | COc1ccc(-c2coc3cc(OC(=O)CCCCCCCCCC[P+](c4ccccc4)(c4ccccc4)c4ccccc4)ccc3c2=O)cc1 [2f, 7-O-(11-bromoundecanoyl)-formononetin-triphenylphosphine coupling] | 30.4 ± 2.12 | 20.6 ± 1.21 | 27.9 ± 2.69 | 52.3 ± 6.85 |  |  | 51.7 ± 5.48 | ~7
14 | COc1ccc(-c2coc3cc(OC(=O)CCCCCCCCCCC[P+](c4ccccc4)(c4ccccc4)c4ccccc4)ccc3c2=O)cc1 [2g, 7-O-(12-bromododecanoyl)-formononetin-triphenylphosphine coupling] | 29.4 ± 2.52 | 23.6 ± 2.25 | 41.2 ± 4.4 | 46.6 ± 4.95 |  |  | 59.6 ± 5.65 | ~7
15 | O=c1[nH]cc(F)c(=O)[nH]1 [5-FU, 5-fluorouracil, reference compound] | 36.2 ± 3.02 | 22.9 ± 3.54 | 48.1 ± 3.76 |  | > 100 |  | > 100 | 
16 | COc1cccc2c1C(=O)c1c(O)c3c(c(O)c1C2=O)C[C@@](O)(C(=O)CO)C[C@@H]3O[C@H]1C[C@H](N)[C@H](O)[C@H](C)O1 [DOX, doxorubicin, reference compound] | 5.97 ± 0.43 | 15.4 ± 1.06 | 0.168 ± 0.06 | 13.2 ± 0.43 |  |  |  | 
17 | COc1ccc(-c2coc3cc(O)ccc3c2=O)cc1 [FMN, formononetin] | 29.6 ± 1.17 | 83 ± 6.25 | 76.4 ± 6.47 |  | > 100 | almost no solubility | 39.6 ± 3.26 | 

Continued, in another order:

Row | IC50 [2] [µM] | IC50 [3] [µM] | IC50 [4] [µM] | IC50 [5, 7] [µM] | IC50 [5, 8] [µM] | solubility (observation) [6] | SMILES | IC50 [1] [µM] | increase in cytostatic effect relative to formononetin [3] [fold]
18 | 49.5 ± 3.35 |  | 62 ± 8.71 |  |  |  | CCCCCC(=O)Oc1ccc2c(=O)c(-c3ccc(OC)cc3)coc2c1 [3a, 7-O-hexanoyl-formononetin] |  | 
19 | 65.4 ± 3.88 | 96.4 ± 7.37 |  |  |  |  | CCCCCCC(=O)Oc1ccc2c(=O)c(-c3ccc(OC)cc3)coc2c1 [3b] |  | 
20 | 60 ± 7.82 | 83 ± 5.89 |  |  |  |  | CCCCCCCC(=O)Oc1ccc2c(=O)c(-c3ccc(OC)cc3)coc2c1 [3c, 7-O-octanoyl-formononetin] |  | 
21 | 80.2 ± 4.8 | 78.1 ± 6.21 | 58.3 ± 5.36 |  |  |  | CCCCCCCCC(=O)Oc1ccc2c(=O)c(-c3ccc(OC)cc3)coc2c1 [3d, 7-O-nonanoyl-formononetin] | 78.3 ± 9.74 | 
22 | 48.6 ± 5.3 | 74 ± 11.9 |  |  |  |  | CCCCCCCCCC(=O)Oc1ccc2c(=O)c(-c3ccc(OC)cc3)coc2c1 [3e, 7-O-n-decanoyl-formononetin] |  | 
23 | 45.4 ± 5.24 | 70.1 ± 9.67 | 46.7 ± 9.24 | 85 ± 5.74 |  |  | CCCCCCCCCCC(=O)Oc1ccc2c(=O)c(-c3ccc(OC)cc3)coc2c1 [3f, 7-O-undecanoyl-formononetin] | 75 ± 5.49 | 
24 |  | 66.9 ± 9.7 | 50.4 ± 5.78 | 67.8 ± 8.92 |  |  | CCCCCCCCCCCC(=O)Oc1ccc2c(=O)c(-c3ccc(OC)cc3)coc2c1 [3g, 7-O-dodecanoyl-formononetin] | 50.4 ± 6.13 | 
